This is an account of results in article PMC10716637 (RSC Advances, 2023).

For orientation: EC50 means the midpoint of the concentration-response curve. One may read the IC50 as the concentration needed to halve the response being measured. The low end stands for inhibition by little substance, the high end for a need for much substance. The CC50 is the concentration at which the toxic effect on the cells reaches its halfway point. A low value points to greater toxicity to the cells.

One data set concerns A549. In words: MTT cytotoxicity assay, A549. The class given is cell-based, human. The note with it: for Selectivity index (SI): folds toxicity in A549 than in VERO cells: CC50 VERO vs EC50 A549; for EC50: Homo sapiens, A549, read-out: EC50 A549. In general terms: Formazan colour is commonly taken as a measure of viable cells.
The test system of the next data set is HCT116. Briefly: MTT cytotoxicity assay, HCT116. The format is cell-based, human. Conditions: for Selectivity index (SI): folds lethalness in HCT-116 than in VERO cells: CC50 VERO vs EC50 HCT-116; for EC50: Homo sapiens, HCT-116, read-out: EC50 HCT116.
Another data set addresses EGFR^WT (Homo sapiens, UniProt P00533). In words: In vitro EGFR^WT kinase inhibitory assay. The class given is biochemical.
The next data set relates to HepG2. Briefly: MTT cytotoxicity assay, HepG2. The format is cell-based, human. Conditions: for Selectivity index (SI): folds more toxic respecting HepG2 than normal VERO cells: CC50 VERO vs EC50 HepG2; for EC50: Homo sapiens, HepG2, read-out: EC50 HepG2.
Data set [1] can be described thus: Cytotoxicity against VERO normal cell lines. Conditions: African green monkey, VERO normal cells.
The subject of the next data set is MCF-7. Briefly: MTT cytotoxicity assay, MCF-7. The format is cell-based, human. Conditions: for Selectivity index (SI): folds toxic in MCF-7 than in normal VERO cells: CC50 VERO vs EC50 MCF-7; for EC50: Homo sapiens, MCF7, read-out: EC50 MCF-7.
For the next data set, the target named is EGFR^T790M (Homo sapiens, UniProt P00533, T790M). Briefly: In vitro EGFR^T790M kinase inhibitory assay. The class given is biochemical.
Chain of EGFR^T790M (P00533 25-1210 T790M): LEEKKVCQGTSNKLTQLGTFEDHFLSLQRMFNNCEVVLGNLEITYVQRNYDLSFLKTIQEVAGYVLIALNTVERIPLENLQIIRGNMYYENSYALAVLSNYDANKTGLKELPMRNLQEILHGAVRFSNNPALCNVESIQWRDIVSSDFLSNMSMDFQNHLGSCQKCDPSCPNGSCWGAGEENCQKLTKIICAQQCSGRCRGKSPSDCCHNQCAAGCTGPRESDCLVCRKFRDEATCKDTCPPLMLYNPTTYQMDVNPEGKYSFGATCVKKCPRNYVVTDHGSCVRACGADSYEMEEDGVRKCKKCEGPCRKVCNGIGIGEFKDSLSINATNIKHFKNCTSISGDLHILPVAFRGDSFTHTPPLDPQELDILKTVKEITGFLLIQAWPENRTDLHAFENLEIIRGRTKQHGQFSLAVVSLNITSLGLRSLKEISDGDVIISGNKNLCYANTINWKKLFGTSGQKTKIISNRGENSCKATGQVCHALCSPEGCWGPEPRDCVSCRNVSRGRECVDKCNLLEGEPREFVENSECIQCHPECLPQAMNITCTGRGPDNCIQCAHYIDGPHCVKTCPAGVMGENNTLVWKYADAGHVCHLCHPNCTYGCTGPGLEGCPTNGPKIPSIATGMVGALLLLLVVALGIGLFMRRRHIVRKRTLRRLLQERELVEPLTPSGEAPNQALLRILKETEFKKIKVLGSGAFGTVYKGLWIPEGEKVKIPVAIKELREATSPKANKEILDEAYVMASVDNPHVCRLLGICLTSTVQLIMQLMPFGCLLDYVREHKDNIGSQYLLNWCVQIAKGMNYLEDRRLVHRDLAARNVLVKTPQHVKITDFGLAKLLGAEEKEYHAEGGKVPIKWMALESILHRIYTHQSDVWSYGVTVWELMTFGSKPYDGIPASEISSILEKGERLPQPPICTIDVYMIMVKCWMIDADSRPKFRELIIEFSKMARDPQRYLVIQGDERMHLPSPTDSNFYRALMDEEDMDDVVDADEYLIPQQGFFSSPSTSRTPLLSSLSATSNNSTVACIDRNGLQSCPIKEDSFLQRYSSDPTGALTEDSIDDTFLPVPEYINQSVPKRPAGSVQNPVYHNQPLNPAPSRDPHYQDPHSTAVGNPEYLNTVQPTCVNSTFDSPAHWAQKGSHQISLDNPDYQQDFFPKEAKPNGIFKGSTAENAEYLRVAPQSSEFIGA
Another data set addresses VEGFR-2 (Homo sapiens, UniProt P35968). Briefly: In vitro VEGFR-2 kinase inhibitory assay. The format is biochemical.

Chain of EGFR^WT (P00533 25-1210): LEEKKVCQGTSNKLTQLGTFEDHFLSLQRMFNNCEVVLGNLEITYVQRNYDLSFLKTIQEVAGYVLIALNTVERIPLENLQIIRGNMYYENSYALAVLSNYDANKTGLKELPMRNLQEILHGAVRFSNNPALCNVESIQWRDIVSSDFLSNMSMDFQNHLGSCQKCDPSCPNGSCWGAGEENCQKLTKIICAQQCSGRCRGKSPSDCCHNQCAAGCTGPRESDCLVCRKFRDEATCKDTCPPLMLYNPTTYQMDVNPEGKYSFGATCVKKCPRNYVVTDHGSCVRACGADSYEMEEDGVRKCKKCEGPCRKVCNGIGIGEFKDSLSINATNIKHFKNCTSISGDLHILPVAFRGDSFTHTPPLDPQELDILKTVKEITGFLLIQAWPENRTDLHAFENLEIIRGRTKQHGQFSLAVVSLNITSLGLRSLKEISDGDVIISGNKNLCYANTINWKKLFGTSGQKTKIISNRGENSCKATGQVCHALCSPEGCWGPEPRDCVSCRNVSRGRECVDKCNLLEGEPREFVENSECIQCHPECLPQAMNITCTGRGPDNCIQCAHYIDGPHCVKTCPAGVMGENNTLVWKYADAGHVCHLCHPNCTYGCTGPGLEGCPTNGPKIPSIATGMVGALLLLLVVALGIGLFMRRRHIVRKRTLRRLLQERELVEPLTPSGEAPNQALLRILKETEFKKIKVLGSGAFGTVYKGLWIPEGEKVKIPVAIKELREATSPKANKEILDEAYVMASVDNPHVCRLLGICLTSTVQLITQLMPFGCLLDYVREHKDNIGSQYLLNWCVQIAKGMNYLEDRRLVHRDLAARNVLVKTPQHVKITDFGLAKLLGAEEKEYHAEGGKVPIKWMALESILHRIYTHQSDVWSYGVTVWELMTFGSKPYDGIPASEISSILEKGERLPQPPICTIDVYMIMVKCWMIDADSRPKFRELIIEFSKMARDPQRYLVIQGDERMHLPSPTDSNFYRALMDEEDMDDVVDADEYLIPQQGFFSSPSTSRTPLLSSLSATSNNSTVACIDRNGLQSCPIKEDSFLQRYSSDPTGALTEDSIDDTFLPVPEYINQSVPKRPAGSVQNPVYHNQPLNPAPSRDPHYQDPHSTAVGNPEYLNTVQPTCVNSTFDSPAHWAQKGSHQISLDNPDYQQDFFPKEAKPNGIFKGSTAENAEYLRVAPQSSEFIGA
Chain of VEGFR-2 (P35968 20-1356): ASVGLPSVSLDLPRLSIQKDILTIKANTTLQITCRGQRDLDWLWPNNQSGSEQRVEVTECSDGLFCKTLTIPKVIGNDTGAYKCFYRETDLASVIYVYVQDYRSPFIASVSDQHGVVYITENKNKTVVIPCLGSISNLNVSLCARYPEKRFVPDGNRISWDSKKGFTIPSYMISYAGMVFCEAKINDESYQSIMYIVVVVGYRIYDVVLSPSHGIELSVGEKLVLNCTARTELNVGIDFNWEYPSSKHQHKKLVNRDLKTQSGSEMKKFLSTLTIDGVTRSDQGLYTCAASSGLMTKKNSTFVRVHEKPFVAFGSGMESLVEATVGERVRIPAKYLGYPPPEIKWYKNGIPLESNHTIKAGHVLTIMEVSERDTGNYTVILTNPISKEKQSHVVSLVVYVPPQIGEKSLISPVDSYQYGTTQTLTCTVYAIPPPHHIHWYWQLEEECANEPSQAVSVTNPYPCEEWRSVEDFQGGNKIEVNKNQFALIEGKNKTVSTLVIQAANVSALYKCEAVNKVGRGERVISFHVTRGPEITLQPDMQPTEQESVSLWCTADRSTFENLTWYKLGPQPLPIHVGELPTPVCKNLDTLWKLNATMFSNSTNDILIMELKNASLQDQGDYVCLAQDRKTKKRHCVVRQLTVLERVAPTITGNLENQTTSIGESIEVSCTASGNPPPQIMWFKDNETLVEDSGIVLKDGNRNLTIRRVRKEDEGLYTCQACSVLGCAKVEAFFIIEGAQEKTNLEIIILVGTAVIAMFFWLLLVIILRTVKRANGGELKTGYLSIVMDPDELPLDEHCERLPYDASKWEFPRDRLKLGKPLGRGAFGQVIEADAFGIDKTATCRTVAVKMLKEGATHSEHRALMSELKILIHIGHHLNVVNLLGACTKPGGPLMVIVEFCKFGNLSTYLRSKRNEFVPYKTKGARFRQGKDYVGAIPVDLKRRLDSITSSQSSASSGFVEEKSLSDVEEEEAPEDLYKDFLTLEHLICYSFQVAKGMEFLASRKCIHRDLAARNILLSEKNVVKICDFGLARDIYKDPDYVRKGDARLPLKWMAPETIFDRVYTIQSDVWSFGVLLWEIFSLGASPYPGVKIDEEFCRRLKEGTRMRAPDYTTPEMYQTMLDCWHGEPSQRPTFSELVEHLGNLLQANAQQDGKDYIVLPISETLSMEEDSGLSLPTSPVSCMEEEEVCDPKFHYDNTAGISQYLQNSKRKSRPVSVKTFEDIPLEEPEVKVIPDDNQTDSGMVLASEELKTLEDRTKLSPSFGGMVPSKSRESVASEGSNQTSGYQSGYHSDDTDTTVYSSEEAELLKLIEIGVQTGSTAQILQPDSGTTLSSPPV

Take `CCCn1c(=O)n(CC(=O)Nc2ccc(C(=O)OCC)cc2)c(=O)c2cc(I)ccc21` [Compound 5d, Ethyl 4-{2-[6-iodo-2,4-dioxo-1-propyl-1,4-dihydroquinazolin-3(2H)-yl]acetamido}benzoate]: the “Selectivity index (SI): folds toxicity in A549 than in VERO cells” value with A549 was 6.98 folds. The EC50 in the data set with A549 was 6.68 ± 0.7 µM; in the data set with HCT116, 6.52 ± 0.7 µM; in the data set with HepG2, 7.5 ± 0.7 µM; with MCF-7, 7.37 ± 0.7 µM. Further, the “Selectivity index (SI): folds lethalness in HCT-116 than in VERO cells” value with HCT116 is reported as 7.15 folds. For the same compound, the IC50 worked out at 0.32 ± 0.03 µM against EGFR^WT, 0.4 ± 0.35 µM against EGFR^T790M and 1.25 ± 0.1 µM against VEGFR-2. The “Selectivity index (SI): folds more toxic respecting HepG2 than normal VERO cells” value in the data set on HepG2 amounted to 6.21 folds. In addition, the cytotoxic concentration (CC50) in data set [1] was 46.6 ± 0.5 µM. For the same compound, the “Selectivity index (SI): folds toxic in MCF-7 than in normal VERO cells” value in the data set on MCF-7 is 6.32 folds.

Take `CCCn1c(=O)n(CC(=O)Nc2ccc(C(=O)NN=Cc3ccccc3)cc2)c(=O)c2cc(I)ccc21` [Compound 9d, N-[4-(2-benzylidenehydrazine-1-carbonyl)phenyl]-2-[6-iodo-2,4-dioxo-1-propyl-1,4-dihydroquinazolin-3(2H)-yl]acetamide]: the “Selectivity index (SI): folds toxicity in A549 than in VERO cells” value in the data set with A549 is listed as 9.20 folds. Besides, the EC50 turned out to be 5.48 ± 0.5 µM in the data set with A549, 6.5 ± 0.5 µM in the data set with HCT116, 5.65 ± 0.5 µM with HepG2 and 6.45 ± 0.5 µM in the data set on MCF-7. Further, in the data set on HCT116, the “Selectivity index (SI): folds lethalness in HCT-116 than in VERO cells” value is given as 7.75 folds. Besides, the half-maximal inhibitory concentration (IC50) against EGFR^WT amounted to 0.2 ± 0.03 µM; at EGFR^T790M, 0.26 ± 0.3 µM; on VEGFR-2 it was 0.9 ± 0.1 µM. Further, the “Selectivity index (SI): folds more toxic respecting HepG2 than normal VERO cells” value in the data set with HepG2 amounted to 8.92 folds. The same compound returned a 50% cytotoxic concentration (CC50) in data set [1] of 50.39 ± 0.5 µM. Further, the “Selectivity index (SI): folds toxic in MCF-7 than in normal VERO cells” value in the data set on MCF-7 is listed as 7.81 folds.
